According to PMC2225441, “Partial Restoration of Mutant Enzyme Homeostasis in Three Distinct Lysosomal Storage Disease Cell Lines by Altering Calcium Homeostasis” (PLoS Biology, 2008):

Columns and labels:
L444P GC = test: intact cell GC activity assay in homozygous L444P GC patient-derived fibroblasts; assay type: cell-based, human; conditions: for L444P GC activity, screen of VGCC blockers, ionotropic glutamate receptor inhibitors and other calcium channel blockers: intact cell GC activity assay, only the named compounds increased activity; for L444P GC activity, screen of fifteen thermosensitive TRP channel modulators: intact cell GC enzyme assay, 5-d incubation, Figure S1, only the named compound increased activity; for maximum increase in L444P GC activity: 30 μM; for effect on L444P GC activity: 0.3–100 μM
Ca^2+ channel = conditions: previously reported; read-out: Ca^2+ channel blocker IC50; cited from earlier work
L444P fibroblasts = test: cytotoxicity to L444P fibroblasts; assay type: cell-based, human; conditions: high concentrations (>10 μM)
ΔF508 CFTR = conditions: SERCA inhibitor; cited from earlier work
[1] = 7 d, intact cell assay, Figure 3D

Row | SMILES | L444P GC activity, screen of VGCC blockers, ionotropic glutamate receptor inhibitors and other calcium channel blockers (L444P GC) | L444P GC activity, screen of fifteen thermosensitive TRP channel modulators (L444P GC) | other results
1 | O=C(O)c1cc(=O)c2c(Cl)cc(Cl)cc2[nH]1 [5,7-dichlorokynurenic acid] | only diltiazem and verapamil |  | 
2 | CCOC(=O)C(N)/C=C(\C)CP(=O)(O)O (stereo not shown) [CGP 39551] | only diltiazem and verapamil |  | 
3 | NCCOB(c1ccccc1)c1ccccc1 [Compound 2-APB, 2-APB] |  | Only ruthenium red notably increased | 
4 | COc1ccc([C@@H]2Sc3ccccc3N(CCN(C)C)C(=O)[C@@H]2O)cc1 [Compound 2] |  |  | maximum increase of L444P lysosomal GC activity (L444P GC; 10 μM, 7 d, intact cell assay, Figure 3D): 2.1 fold
5 | CN(C)CCN1C(=O)[C@H](O)[C@H](c2ccc(O)cc2)Sc2ccccc21 [Compound 3] |  |  | maximum increase in L444P GC activity (L444P GC; [1]): 1.3 fold; IC50 (Ca^2+ channel): 45.5 µM
6 | CNCCN1C(=O)[C@H](O)[C@H](c2ccc(O)cc2)Sc2ccccc21 [Compound 4] |  |  | maximum increase in L444P GC activity (L444P GC; [1]): 1.2 fold; IC50 (Ca^2+ channel): 127 µM
7 | CCCCCCCCCC(=O)O[C@@H]1[C@@H](C)[C@@]2(O)[C@@H](C=C(CO)C[C@@]3(O)C(=O)C(C)=C[C@@H]23)[C@@H]2C(C)(C)[C@]12OC(=O)CCCCCCCCC [Compound 4α-PDD, 4α-PDD] |  | Only ruthenium red notably increased | 
8 | COc1ccc([C@@H]2Sc3ccccc3NC(=O)[C@@H]2OC(C)=O)cc1 [Compound 5] |  |  | effect on L444P GC activity (L444P GC; [1]): do not increase L444P GC activity; toxicity to L444P fibroblasts (L444P fibroblasts): toxic
9 | COc1ccc([C@@H]2Sc3ccccc3NC(=O)[C@@H]2O)cc1 [Compound 6] |  |  | effect on L444P GC activity (L444P GC; [1]): do not increase L444P GC activity; toxicity to L444P fibroblasts (L444P fibroblasts): toxic
10 | O=[N+]([O-])c1cc2nc(O)c(O)nc2cc1[N+](=O)[O-] [DNQX] | only diltiazem and verapamil |  | 
11 | Cc1cc(-c2ccc(/N=N/c3ccc4c(S(=O)(=O)O)cc(S(=O)(=O)O)c(N)c4c3O)c(C)c2)ccc1/N=N/c1ccc2c(S(=O)(=O)O)cc(S(=O)(=O)O)c(N)c2c1O [Evans blue] | only diltiazem and verapamil |  | 
12 | COc1ccc(CCCOC(Cn2ccnc2)c2ccc(OC)cc2)cc1 (stereo not shown) [SKF 96365] | only diltiazem and verapamil |  | 
13 | C=CCN=C=S [allylisothiocyanate] |  | Only ruthenium red notably increased | 
14 | CCCCc1oc2ccccc2c1C(=O)c1cc(I)c(OCCN(CC)CC)c(I)c1 [amiodarone] | only diltiazem and verapamil |  | 
15 | CCCCC/C=C\C/C=C\C/C=C\C/C=C\CCCC(=O)NCCO [anandamide] |  | Only ruthenium red notably increased | 
16 | CC(C)COCC(CN(Cc1ccccc1)c1ccccc1)N1CCCC1 (stereo not shown) [bepridil] | only diltiazem and verapamil |  | 
17 | CC12CCC(CC1=O)C2(C)C (stereo not shown) [camphor] |  | Only ruthenium red notably increased | 
18 | COc1cc(CNC(=O)CCCC/C=C/C(C)C)ccc1O [capsaicin] |  | Only ruthenium red notably increased | 

Row | SMILES | L444P GC activity, screen of VGCC blockers, ionotropic glutamate receptor inhibitors and other calcium channel blockers (L444P GC) | L444P GC activity, screen of fifteen thermosensitive TRP channel modulators (L444P GC) | other results
19 | Oc1cc2c(cc1O)CN(C(=S)NCCc1ccc(Cl)cc1)CCC2 [capsazepine] |  | Only ruthenium red notably increased | 
20 | O=C/C=C/c1ccccc1 [cinnamaldehyde] |  | Only ruthenium red notably increased | 
21 | COc1cc(/C=C/C(=O)CC(=O)/C=C/c2ccc(O)c(OC)c2)ccc1O [curcumin] |  |  | folding and trafficking of ΔF508 CFTR (ΔF508 CFTR): enhance folding and trafficking of ΔF508 CFTR
22 | CCC1(C)CC(=O)NC1=O (stereo not shown) [ethosuximide] | only diltiazem and verapamil |  | 
23 | CC12CCC(CC1)C(C)(C)O2 [eucalyptol] |  | Only ruthenium red notably increased | 
24 | NC(=O)OCC(COC(N)=O)c1ccccc1 [felbamate] | only diltiazem and verapamil |  | 
25 | Fc1ccc(C(c2ccc(F)cc2)N2CCN(C/C=C/c3ccccc3)CC2)cc1 [flunarizine] | only diltiazem and verapamil |  | 
26 | O=C1NC(c2cccc([N+](=O)[O-])c2)=CCN1c1ccccc1O [icilin] |  | Only ruthenium red notably increased | 
27 | CN(C)C(=O)C(CCN1CCC(O)(c2ccc(Cl)cc2)CC1)(c1ccccc1)c1ccccc1 [loperamide] | only diltiazem and verapamil |  | 
28 | CC1CCC(C(C)C)C(O)C1 (stereo not shown) [menthol] |  | Only ruthenium red notably increased | 
29 | COCC(=O)O[C@]1(CCN(C)CCCc2nc3ccccc3[nH]2)CCc2cc(F)ccc2[C@@H]1C(C)C [mibefradil] | only diltiazem and verapamil |  | 
30 | COCCOC(=O)C1=C(C)NC(C)=C(C(=O)OC(C)C)C1c1cccc([N+](=O)[O-])c1 (stereo not shown) [nimodipine] | only diltiazem and verapamil |  | 
31 | CCCCCCCC/C=C\CCCCCCCC(=O)NCc1ccc(O)c(OC)c1 [olvanil] |  | Only ruthenium red notably increased | 
32 | O=C(/C=C/C=C/c1ccc2c(c1)OCO2)N1CCCCC1 [piperine] |  | Only ruthenium red notably increased | 
33 | C=C(C)[C@]12C[C@@H](C)[C@@]34O[C@](Cc5ccccc5)(O[C@@H]1[C@@H]3C=C(COC(=O)Cc1ccc(O)c(OC)c1)C[C@]1(O)C(=O)C(C)=C[C@@H]41)O2 [resiniferatoxin] |  | Only ruthenium red notably increased | 
34 | N.N.N.N.N.N.N.N.N.N.N.N.N.N.[Cl-].[Cl-].[Cl-].[Cl-].[Cl-].[Cl-].[O-2].[O-2].[Ru+3].[Ru+3].[Ru+4] [ruthenium red] |  | notably increased | 
35 | C/C=C(/C)C(=O)O[C@H]1C(C)=C2[C@H]([C@@H]1OC(=O)CCCCCCC)[C@@](C)(OC(C)=O)C[C@H](OC(=O)CCC)[C@@]1(O)[C@H]2OC(=O)[C@@]1(C)O [thapsigargin] |  |  | L444P GC folding, trafficking, or lysosomal activity (L444P GC; Figure S4): does not enhance L444P GC folding, trafficking, or lysosomal activity; influence on L444P GC activity at higher concentration (L444P GC; alone, above 1 nM, 7-d incubation, Figure S4): decreased L444P GC activity significantly; influence on L444P GC activity at low concentration (L444P GC; alone, until 1 nM, 7 d, Figure S4): no influence on GC activity; L444P GC activity on co-application with diltiazem (L444P GC; varying concentrations with 10 μM diltiazem, 7 d, Figure S4): dose-dependent decrease of GC activity; folding and trafficking of ΔF508 CFTR (ΔF508 CFTR): enhance folding and trafficking of ΔF508 CFTR
